Source: patent US20230365602A1, “COMPOUND FOR USE IN THE TREATMENT OF PROTOZOAL DISEASES AND PROCESS FOR PRODUCTION OF SAID COMPOUND” (QUADREL S.R.L., priority 2020, published 2023)
Converted amounts (≈) assume the structure as drawn. “And” between values parts separate entries of the source, which are not always exact repeats. Equal entries are not always repeated. Where two headings read alike, the source gives them in different places.

Key:
[1] = Toxicity MTT assay in PMA-differentiated THP-1 cells; format: cell-based, human; details: human, PMA-differentiated THP-1 cells (macrophages)
Description: (§1) The in vitro antiparasitic activity against L. infantum (MHOM/MA/67/ITMAP-263) and the toxicity against THP-1 macrophages is presented in Table 1.

[2] = test system: PMA-differentiated THP-1 cells; assay: as above; format: cell-based, human; details: Table 5
Description: as §1

[3] = Maximum tolerated dose and dose range finding, 7 days oral gavage; details: for average weight loss at the end of the experiment: 7 days
Description: The primary objective of the dose range finding study is to establish the maximum tolerated dose (MTD) as determined by parameters such as clinical signs and reductions in body weight and food consumption, and to provide the data for appropriate dose selection in subsequent regulatory toxicology studies.

CYP2D6 = CYP2D6 (Homo sapiens, UniProt P10635); assay: Early toxicity: CYP2D6 inhibition; format: in vitro ADME; details: human, mean ± SD, Table 4a
CYP2D6, sequence (P10635 whole entry): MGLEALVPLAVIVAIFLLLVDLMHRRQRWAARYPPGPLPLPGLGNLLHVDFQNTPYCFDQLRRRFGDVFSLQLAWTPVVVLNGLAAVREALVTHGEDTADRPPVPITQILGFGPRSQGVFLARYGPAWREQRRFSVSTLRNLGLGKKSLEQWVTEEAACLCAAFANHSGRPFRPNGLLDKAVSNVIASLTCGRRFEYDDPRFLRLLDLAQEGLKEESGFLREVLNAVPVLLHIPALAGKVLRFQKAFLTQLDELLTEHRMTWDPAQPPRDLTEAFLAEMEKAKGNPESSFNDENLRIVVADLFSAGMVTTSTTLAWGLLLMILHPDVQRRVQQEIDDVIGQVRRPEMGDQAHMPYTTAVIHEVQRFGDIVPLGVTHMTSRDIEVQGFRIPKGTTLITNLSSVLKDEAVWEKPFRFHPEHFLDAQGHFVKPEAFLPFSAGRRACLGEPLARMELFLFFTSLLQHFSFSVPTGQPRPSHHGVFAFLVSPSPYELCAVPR

HDAC9 = HDAC9 (Homo sapiens, UniProt Q9UKV0); assay: HDAC9 activity inhibition; format: biochemical; details: 10 μM
HDAC9, sequence (Q9UKV0 whole entry, species assumed): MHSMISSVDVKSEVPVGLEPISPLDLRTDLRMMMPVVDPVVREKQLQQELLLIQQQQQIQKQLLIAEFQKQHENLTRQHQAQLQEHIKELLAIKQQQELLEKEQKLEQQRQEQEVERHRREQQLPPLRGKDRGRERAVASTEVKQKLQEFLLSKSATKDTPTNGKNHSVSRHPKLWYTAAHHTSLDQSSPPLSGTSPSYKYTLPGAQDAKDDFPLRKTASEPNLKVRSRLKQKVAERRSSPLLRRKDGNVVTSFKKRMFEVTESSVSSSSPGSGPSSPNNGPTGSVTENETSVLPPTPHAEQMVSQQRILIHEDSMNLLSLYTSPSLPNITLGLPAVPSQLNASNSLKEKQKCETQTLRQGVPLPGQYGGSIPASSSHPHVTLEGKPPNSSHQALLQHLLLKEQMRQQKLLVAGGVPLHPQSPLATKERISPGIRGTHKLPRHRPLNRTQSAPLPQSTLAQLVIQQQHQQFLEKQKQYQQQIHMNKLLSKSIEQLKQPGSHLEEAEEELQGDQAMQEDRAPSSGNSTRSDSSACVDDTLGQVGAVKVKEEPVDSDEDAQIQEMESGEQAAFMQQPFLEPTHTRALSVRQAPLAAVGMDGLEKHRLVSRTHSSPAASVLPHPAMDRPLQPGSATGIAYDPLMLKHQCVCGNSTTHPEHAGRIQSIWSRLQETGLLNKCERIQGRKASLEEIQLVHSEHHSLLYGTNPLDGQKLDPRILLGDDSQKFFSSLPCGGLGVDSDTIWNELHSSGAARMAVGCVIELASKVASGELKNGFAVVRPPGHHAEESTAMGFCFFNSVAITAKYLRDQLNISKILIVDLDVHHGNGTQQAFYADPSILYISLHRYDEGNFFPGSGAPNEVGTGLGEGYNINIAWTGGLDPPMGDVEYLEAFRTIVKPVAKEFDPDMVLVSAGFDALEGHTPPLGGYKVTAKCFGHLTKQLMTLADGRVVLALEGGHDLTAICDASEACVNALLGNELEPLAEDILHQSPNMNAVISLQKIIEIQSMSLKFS

[4] = test system: L. major SASKH intracellular amastigotes; assay: Anti-leishmanial activity, L. major intracellular amastigotes; format: cell-based; details: Leishmania major; read-out: L. major SASKH intracellular amastigotes IC50 ± SEM
Description: (§2) The in vitro antiparasitic activity of compound 5-cyclopentadecylpentyl (2-(trimethylammonio)ethyl) phosphate (19) against L. infantum (2 species), L. amazonensis, L. donovani and L. major is presented in Table 3, as well as the toxicity against the human monocytic cell Line THP1 and PMA-differentiated THP-1 cells.

HDAC8 = HDAC8 (Homo sapiens, UniProt Q9BY41); assay: HDAC8 activity inhibition; format: biochemical; details: 10 μM
HDAC8, sequence (Q9BY41 whole entry, species assumed): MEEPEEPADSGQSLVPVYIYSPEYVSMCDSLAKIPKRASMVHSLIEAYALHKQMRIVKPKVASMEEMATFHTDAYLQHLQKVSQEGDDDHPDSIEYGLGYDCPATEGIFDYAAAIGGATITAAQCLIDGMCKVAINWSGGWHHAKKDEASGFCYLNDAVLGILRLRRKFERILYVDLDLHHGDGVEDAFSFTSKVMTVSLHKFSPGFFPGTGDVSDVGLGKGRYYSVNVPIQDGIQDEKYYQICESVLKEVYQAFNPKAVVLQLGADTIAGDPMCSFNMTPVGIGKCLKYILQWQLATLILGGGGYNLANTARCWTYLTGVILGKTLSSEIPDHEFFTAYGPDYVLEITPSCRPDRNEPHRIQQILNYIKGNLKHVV

CYP3A4 = CYP3A4 (Homo sapiens, UniProt P08684); assay: Early toxicity: CYP3A4 inhibition; format: in vitro ADME; details: human, 10 μM
CYP3A4, sequence (P08684 whole entry): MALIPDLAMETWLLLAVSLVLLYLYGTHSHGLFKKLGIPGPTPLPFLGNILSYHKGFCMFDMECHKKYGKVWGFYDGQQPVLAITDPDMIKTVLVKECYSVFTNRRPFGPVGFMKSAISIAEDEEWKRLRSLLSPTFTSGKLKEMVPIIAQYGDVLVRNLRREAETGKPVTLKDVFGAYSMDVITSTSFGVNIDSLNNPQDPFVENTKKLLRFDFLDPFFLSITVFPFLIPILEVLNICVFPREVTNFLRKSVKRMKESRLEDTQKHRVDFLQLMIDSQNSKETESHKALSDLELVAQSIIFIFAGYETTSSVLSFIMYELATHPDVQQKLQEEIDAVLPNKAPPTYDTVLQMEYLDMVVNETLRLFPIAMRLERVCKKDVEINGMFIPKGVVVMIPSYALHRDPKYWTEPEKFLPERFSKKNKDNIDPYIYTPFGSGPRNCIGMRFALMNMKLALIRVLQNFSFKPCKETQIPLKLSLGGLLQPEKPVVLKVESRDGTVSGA

HDAC6 = HDAC6 (Homo sapiens, UniProt Q9UBN7); assay: HDAC6 activity inhibition; format: biochemical; details: 10 μM
HDAC6, sequence (Q9UBN7 whole entry, species assumed): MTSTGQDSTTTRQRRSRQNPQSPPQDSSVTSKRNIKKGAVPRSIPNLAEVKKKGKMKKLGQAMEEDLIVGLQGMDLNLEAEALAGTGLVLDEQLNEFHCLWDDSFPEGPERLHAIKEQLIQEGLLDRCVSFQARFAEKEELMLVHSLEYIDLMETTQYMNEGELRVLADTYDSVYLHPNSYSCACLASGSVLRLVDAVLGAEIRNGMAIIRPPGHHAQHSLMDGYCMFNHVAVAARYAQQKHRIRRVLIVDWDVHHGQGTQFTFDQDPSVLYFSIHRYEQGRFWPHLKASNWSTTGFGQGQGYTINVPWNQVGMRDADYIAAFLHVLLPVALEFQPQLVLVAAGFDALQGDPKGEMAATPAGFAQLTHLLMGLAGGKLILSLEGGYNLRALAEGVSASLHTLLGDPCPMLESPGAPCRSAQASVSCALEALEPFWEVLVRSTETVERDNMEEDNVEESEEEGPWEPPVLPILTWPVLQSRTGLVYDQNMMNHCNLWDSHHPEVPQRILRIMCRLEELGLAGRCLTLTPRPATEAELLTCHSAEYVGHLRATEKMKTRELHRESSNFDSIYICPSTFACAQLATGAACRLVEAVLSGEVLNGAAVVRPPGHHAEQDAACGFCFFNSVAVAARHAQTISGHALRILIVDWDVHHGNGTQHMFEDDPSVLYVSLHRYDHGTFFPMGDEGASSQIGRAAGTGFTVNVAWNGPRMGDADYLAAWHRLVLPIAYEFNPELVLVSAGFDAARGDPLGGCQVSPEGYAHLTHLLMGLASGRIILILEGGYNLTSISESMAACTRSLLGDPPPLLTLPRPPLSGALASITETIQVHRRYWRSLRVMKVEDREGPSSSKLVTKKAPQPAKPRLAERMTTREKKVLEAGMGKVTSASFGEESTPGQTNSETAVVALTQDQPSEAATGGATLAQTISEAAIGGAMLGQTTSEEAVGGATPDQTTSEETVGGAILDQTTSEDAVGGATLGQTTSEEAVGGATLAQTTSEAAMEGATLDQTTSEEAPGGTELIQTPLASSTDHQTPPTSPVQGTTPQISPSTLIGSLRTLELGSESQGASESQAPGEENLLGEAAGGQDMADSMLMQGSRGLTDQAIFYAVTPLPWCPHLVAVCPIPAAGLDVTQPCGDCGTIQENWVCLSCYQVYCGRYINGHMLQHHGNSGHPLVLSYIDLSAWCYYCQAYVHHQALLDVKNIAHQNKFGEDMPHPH

[5] = Gel formation in saline solutions of NaCl; format: physicochemical; details: same conditions
Procedure: This effect is more pronounced at concentrations between 7 and 40 mg/mL at a temperature range between 20° C. and 40° C., preferably at ambient temperature. The homogeneity of the product facilitates homogeneity of dosing, i.e, variability among doses is lower, easy administration of the compound and higher patient acceptability.

W1-38 = assay: Early toxicity: W1-38 cell growth; format: cell-based
[6] = Apparent solubility by nephelometry; format: physicochemical; details: kinetic from dmso stock
mitochondria = assay: Early toxicity: mitochondrial toxicity; format: cell-based
[7] = Snapshot pharmacokinetics in plasma after oral gavage; format: in vivo, mice; details: mouse, in vivo, 20 mg/kg; for AUC(0-inf) / Cmax / Tmax / half-life: po
Procedure: Pharmacology of 5-cyclopentadecylpentyl (2-(trimethylammonio)ethyl) phosphate (19) in mice.
Blood samples were collected from the tail vein at 0, 0.5, 0.75, 1, 3, 24 and 72 hours into heparinized tubes. Moreover, biodistribution of the molecule, 72h after administration, was determined in several organs of the treated mice, namely brain, liver, spleen, kidney, heart and bone marrow. […] J Chromatogr B, 865: 55-62) by liquid chromatography mass spectrometry (LC-MS/MS).

CYP2C9 = CYP2C9 (Homo sapiens, UniProt P11712); assay: Early toxicity: CYP2C9 inhibition; format: in vitro ADME; details: 10 μM
CYP2C9, sequence (P11712 whole entry): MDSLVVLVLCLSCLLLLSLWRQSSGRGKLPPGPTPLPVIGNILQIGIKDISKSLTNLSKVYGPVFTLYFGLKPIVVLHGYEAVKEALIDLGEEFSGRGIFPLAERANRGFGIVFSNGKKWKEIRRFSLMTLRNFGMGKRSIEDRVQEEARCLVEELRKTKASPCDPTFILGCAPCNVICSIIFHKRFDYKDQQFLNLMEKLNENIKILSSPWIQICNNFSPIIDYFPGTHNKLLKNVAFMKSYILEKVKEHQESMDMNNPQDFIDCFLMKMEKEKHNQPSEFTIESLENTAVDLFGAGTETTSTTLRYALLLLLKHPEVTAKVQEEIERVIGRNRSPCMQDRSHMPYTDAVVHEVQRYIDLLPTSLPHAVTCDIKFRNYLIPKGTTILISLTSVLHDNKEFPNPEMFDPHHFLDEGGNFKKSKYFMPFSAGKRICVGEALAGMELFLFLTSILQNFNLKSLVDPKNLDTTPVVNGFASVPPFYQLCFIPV

[8] = test system: T. brucei brucei Lister 427 expressing red-shifted luciferase; assay: Efficacy in HAT mice model (acute T. b. brucei infection), live imaging; format: in vivo, BALB/c mice; details: 50 mg/kg/day PO, 7 consecutive days
Description: (B) Overall evolution of parasite burden assessed by live imaging using IVIS Lumina LT (Perkin Elmer) during and after treatment. T. b. brucei Lister 427 expressing red-shifted luciferase was used in these experiments. DX is the day post treatment. (C) Quantification of bioluminescent signal plotted as average radiance (p/s/cm^2/sr) during and after treatment.
In addition, 5-cyclopentadecylpentyl (2-(trimethylammonio) ethyl) phosphate (19) was effective per os in vivo against T. brucei acute model of infection and also against the long lasting chronic infection model. […] The daily treatment with 50 mg/kg for 13 days lead to a significant decrease of infection and increase in animal survival. […] Altogether 5-cyclopentadecylpentyl (2-(trimethylammonio) ethyl) phosphate (19) is effective in the BALB/c infection model for T. brucei being a possible therapeutical option both for HAT stage I and II.
T. brucei brucei Lister 427 expressing red-shifted luciferase was used in these experiments as described for L. infantum in vivo infection in (Graça N A et al., Antimicrob Agents Chemother. 2016 Mar. 25; 60(4):2532-6). The overall evolution of parasite burden assessed by live imaging using IVIS Lumina LT (Perkin Elmer) during and after treatment. […] To confirm this possibility, the treated mice immune system was suppressed with cyclophosphamide. […] The advantage over pentamidine is the oral administration of compound 19 versus ip administration of pentamidine.

[9] = test system: L. donovani 1SR intracellular amastigotes; assay: Anti-leishmanial activity, L. donovani intracellular amastigotes; format: cell-based; details: Leishmania donovani; read-out: L. donovani 1SR intracellular amastigotes IC50 ± SEM
Description: as §2

CYP2C19 = CYP2C19 (Homo sapiens, UniProt P33261); assay: Early toxicity: CYP2C19 inhibition; format: in vitro ADME; details: human, mean ± SD, Table 4a
CYP2C19, sequence (P33261 whole entry): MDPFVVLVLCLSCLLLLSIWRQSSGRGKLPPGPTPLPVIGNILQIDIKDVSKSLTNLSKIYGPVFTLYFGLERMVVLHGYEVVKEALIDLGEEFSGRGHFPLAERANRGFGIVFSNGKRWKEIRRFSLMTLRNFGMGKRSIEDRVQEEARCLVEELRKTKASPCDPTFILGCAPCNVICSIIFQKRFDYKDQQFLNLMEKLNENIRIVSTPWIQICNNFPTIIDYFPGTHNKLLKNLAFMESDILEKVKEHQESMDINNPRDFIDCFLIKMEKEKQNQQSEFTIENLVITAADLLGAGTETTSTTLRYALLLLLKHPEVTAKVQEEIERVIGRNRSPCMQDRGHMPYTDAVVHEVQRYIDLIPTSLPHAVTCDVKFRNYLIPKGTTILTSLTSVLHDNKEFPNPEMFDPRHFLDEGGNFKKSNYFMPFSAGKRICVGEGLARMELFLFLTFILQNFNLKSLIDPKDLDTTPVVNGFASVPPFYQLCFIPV

[10] = BALB/c (Compound 19), NMRI (miltefosine)

Compound: CCCCCCCCCCCCCCCCOP(=O)([O-])OCC[N+](C)(C)C [Miltefosine, hexadecylphosphocholine, reference compound]
- CC50 ([1]; THP-1 macrophages, Table 1, read-out: Toxicity CC50 ± SD or NOAEL): 15.9 ± 1.2 µM
- IC50 ([1]; Table 4b, read-out: Cytotoxicity THP-1 (IC50)): 15.9 ± 1.2 µM
- Toxicity MTT assay in PMA-differentiated THP-1 cells [2]: 15.9 ± 1.2 µM
- average weight loss at the end of the experiment ([3]; 50 mg/kg daily oral gavage): 11±3%
- food intake compared to the equivalent treatment of compound 19 ([3]; 100 mg/kg): significant lesser food intake
- day from which weight loss was significant ([3]; 100 mg/kg daily oral gavage): 4 days
- average weight loss at the end of the experiment ([3]; 100 mg/kg daily oral gavage): 19±6%
- MTD at 7 days ([3]; BALB/c, mouse, in vivo, oral): 50 mg/kg
- inhibition at 10 µM (CYP2D6): 30.8 ± 16.7%
- inhibition of the activity of HDAC9 (HDAC9): did not inhibit
- IC50 [4]: 43.7 ± 8.34 µM
- inhibition of the activity of HDAC8 (HDAC8): did not inhibit
- inhibition at 10 µM (CYP3A4; Table 5, read-out: Avg % inhibition CYP3A4): 8.39 ± 8.99%
- inhibition at 10 µM (CYP3A4; mean ± SD, Table 4a, read-out: % inhibition CYP3A4): 8.39 ± 8.99%
- inhibition of the activity of HDAC6 (HDAC6): did not inhibit
- gel formation [5]: not observed
- Avg % Cell growth W1-38 (W1-38; 10 μM, Table 5): 113.50 ± 26.66 (10 μM) %
- % cell growth W1-38 (W1-38; at 1 μM): 113.5 ± 26.66%
- solubility ([6]; pH 1.6, simulated gastric fluid): 12.5 µM (≈ 5.09 µg/mL)
- solubility ([6]; pH 5, fessif): > 100 µM
- solubility ([6]; pH 6.5, fassif): > 100 µM
- solubility ([6]; pH 7.4, aqueous buffer): 25 µM (≈ 10.2 µg/mL)
- solubility ([6]; water): 25 µM (≈ 10.2 µg/mL)
- Ang % Toxicity Mitochondria (mitochondria; 10 μM, Table 5): 3.99 ± 8.95 (10 μM) %
- % mitochondrial toxicity (mitochondria; at 1 μM): 3.39 ± 8.95%
- AUC(0-inf) [7, 10]: 2.4e+06 ng·h/mL and 5960 µM·h
- Cmax [7, 10]: 30600 ng/mL and 75.1 µM
- Tmax [7, 10]: 24 h
- half-life [7, 10]: 43.3 ± 5.5 h
- Ke (h − 1) ([7]; BALB/c): 0.016 ± 0.002 h − 1
- AUC(0-inf) ([7]; BALB/c): 2.4e+06 ng·h/mL and 5960 µM·h
- Cmax ([7]; BALB/c): 30600 ng/mL and 75.1 µM
- Tmax ([7]; BALB/c): 24 h
- half-life ([7]; BALB/c): 43.3 ± 5.5 h
- Avg % inhibition CYP2C9 (CYP2C9; Table 5): −0.80 ± 38.33 (10 μM) %
- % inhibition CYP2C9 (CYP2C9; mean ± SD, Table 4a): −0.8 ± 38.32%
- infection outcome (words) [8]: no in vivo activity
- infection outcome (words) ([8]; listed as miltefosine): did not work at all
- IC50 [9]: 12.7 ± 3.3 µM
- inhibition at 10 µM (CYP2C19): 7.92 ± 15.5%
